From PubChem BioAssay (NCI)
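Results reflect a 48-hour exposure of cells in 96-well plates to compound at five concentrations. Abbreviation: GI50, concentration required for 50% inhibition of growth. TGI denotes the concentration required for complete inhibition of growth.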

How the values were obtained:
Experiment in all cases: NCI-60 cell line screen, 48 h
ACHN renal = tested on: ACHN renal
SN12C renal = tested on: SN12C renal
SF-295 CNS = tested on: SF-295 CNS
COLO 205 colon = tested on: COLO 205 colon
EKVX NSCLC = tested on: EKVX NSCLC
SK-MEL-28 melanoma = tested on: SK-MEL-28 melanoma
IGROV1 ovarian = tested on: IGROV1 ovarian
HS 578T breast = tested on: HS 578T breast
NCI-H522 lung = tested on: NCI-H522 lung
HCC-2998 colon = tested on: HCC-2998 colon
NCI/ADR-RES ovarian = tested on: NCI/ADR-RES ovarian
HL-60(TB) leukemia = tested on: HL-60(TB) leukemia
NCI-H226 lung = tested on: NCI-H226 lung
HCT-15 colon = tested on: HCT-15 colon
OVCAR-5 ovarian = tested on: OVCAR-5 ovarian
K-562 leukemia = tested on: K-562 leukemia
SNB-19 CNS = tested on: SNB-19 CNS
HT29 colon = tested on: HT29 colon
MALME-3M melanoma = tested on: MALME-3M melanoma
OVCAR-3 ovarian = tested on: OVCAR-3 ovarian
HOP-92 NSCLC = tested on: HOP-92 NSCLC
UACC-62 melanoma = tested on: UACC-62 melanoma
SF-539 CNS = tested on: SF-539 CNS
SK-MEL-5 melanoma = tested on: SK-MEL-5 melanoma
DU-145 prostate = tested on: DU-145 prostate
TK-10 renal = tested on: TK-10 renal
NCI-H460 lung = tested on: NCI-H460 lung
MDA-MB-231 breast = tested on: MDA-MB-231 breast
SNB-75 CNS = tested on: SNB-75 CNS
A549 NSCLC = tested on: A549 NSCLC
RXF 393 renal = tested on: RXF 393 renal
BT-549 breast = tested on: BT-549 breast
OVCAR-8 ovarian = tested on: OVCAR-8 ovarian
MCF7 breast = tested on: MCF7 breast
SW-620 colon = tested on: SW-620 colon
786-0 renal = tested on: 786-0 renal
HCT-116 colon = tested on: HCT-116 colon
KM12 colon = tested on: KM12 colon
SK-OV-3 ovarian = tested on: SK-OV-3 ovarian
UACC-257 melanoma = tested on: UACC-257 melanoma
CAKI-1 renal = tested on: CAKI-1 renal
SK-MEL-2 melanoma = tested on: SK-MEL-2 melanoma
M14 melanoma = tested on: M14 melanoma
RPMI-8226 leukemia = tested on: RPMI-8226 leukemia
U251 CNS = tested on: U251 CNS
NCI-H23 lung = tested on: NCI-H23 lung
T-47D breast = tested on: T-47D breast
A498 renal = tested on: A498 renal
UO-31 renal = tested on: UO-31 renal
CCRF-CEM leukemia = tested on: CCRF-CEM leukemia
MDA-MB-435 = tested on: MDA-MB-435
HOP-62 NSCLC = tested on: HOP-62 NSCLC
OVCAR-4 ovarian = tested on: OVCAR-4 ovarian
PC-3 prostate = tested on: PC-3 prostate
SF-268 CNS = tested on: SF-268 CNS

Compound: COc1cc2c(cc1OC)[C@@H]1C(=O)c3cc4c(cc3[C@@H]1N(CCN(C)C)C2=O)OCO4
- GI50 (ACHN renal): 0.0179 µM
- TGI (ACHN renal): 0.452 µM
- GI50 (SN12C renal): 0.0444 µM
- TGI (SN12C renal): 3.74 µM
- GI50 (SF-295 CNS): 0.0194 µM
- TGI (SF-295 CNS): 37.1 µM
- GI50 (COLO 205 colon): 0.663 µM
- TGI (COLO 205 colon): > 35.5 µM
- GI50 (EKVX NSCLC): 1.26 µM
- TGI (EKVX NSCLC): 21.5 µM
- GI50 (SK-MEL-28 melanoma): 2.19 µM
- TGI (SK-MEL-28 melanoma): > 41.3 µM
- GI50 (IGROV1 ovarian): 0.445 µM
- TGI (IGROV1 ovarian): > 100 µM
- GI50 (HS 578T breast): 11.1 µM
- TGI (HS 578T breast): 38.5 µM
- GI50 (NCI-H522 lung): 0.0611 µM
- TGI (NCI-H522 lung): 3.2 µM
- GI50 (HCC-2998 colon): 0.609 µM
- TGI (HCC-2998 colon): 9.77 µM
- GI50 (NCI/ADR-RES ovarian): 0.337 µM
- TGI (NCI/ADR-RES ovarian): 14.7 µM
- GI50 (HL-60(TB) leukemia): 0.0237 µM
- TGI (HL-60(TB) leukemia): 0.0752 µM
- GI50 (NCI-H226 lung): 0.21 µM
- TGI (NCI-H226 lung): 2.28 µM
- GI50 (HCT-15 colon): 0.368 µM
- TGI (HCT-15 colon): 5.82 µM
- GI50 (OVCAR-5 ovarian): 1.1 µM
- TGI (OVCAR-5 ovarian): 15.5 µM
- GI50 (K-562 leukemia): 0.27 µM
- TGI (K-562 leukemia): > 42.4 µM
- GI50 (SNB-19 CNS): 1.73 µM
- TGI (SNB-19 CNS): > 47.3 µM
- GI50 (HT29 colon): 0.104 µM
- GI50 (MALME-3M melanoma): 0.188 µM
- TGI (MALME-3M melanoma): 3.66 µM
- GI50 (OVCAR-3 ovarian): 0.349 µM
- TGI (OVCAR-3 ovarian): 1.96 µM
- GI50 (HOP-92 NSCLC): 0.208 µM
- TGI (HOP-92 NSCLC): 8.87 µM
- GI50 (UACC-62 melanoma): < 0.0146 µM
- TGI (UACC-62 melanoma): 0.544 µM
- GI50 (SF-539 CNS): 0.0669 µM
- TGI (SF-539 CNS): 11.1 µM
- GI50 (SK-MEL-5 melanoma): 0.144 µM
- TGI (SK-MEL-5 melanoma): 0.935 µM
- GI50 (DU-145 prostate): 0.03 µM
- TGI (DU-145 prostate): 4.84 µM
- GI50 (TK-10 renal): 1.53 µM
- TGI (TK-10 renal): 13.7 µM
- GI50 (NCI-H460 lung): < 0.0234 µM
- TGI (NCI-H460 lung): 2.36 µM
- GI50 (MDA-MB-231 breast): 1.06 µM
- TGI (MDA-MB-231 breast): 11.8 µM
- GI50 (SNB-75 CNS): 11.1 µM
- TGI (SNB-75 CNS): 30.7 µM
- GI50 (A549 NSCLC): 0.171 µM
- TGI (A549 NSCLC): 3.67 µM
- GI50 (RXF 393 renal): 1.26 µM
- TGI (RXF 393 renal): > 21.6 µM
- GI50 (BT-549 breast): 0.838 µM
- TGI (BT-549 breast): 22.9 µM
- GI50 (OVCAR-8 ovarian): 0.661 µM
- TGI (OVCAR-8 ovarian): 9.66 µM
- GI50 (MCF7 breast): < 0.0366 µM
- TGI (MCF7 breast): 14.2 µM
- GI50 (SW-620 colon): 0.0369 µM
- TGI (SW-620 colon): 18.7 µM
- GI50 (786-0 renal): < 0.0203 µM
- TGI (786-0 renal): 5.02 µM
- GI50 (HCT-116 colon): 0.116 µM
- TGI (HCT-116 colon): 1.53 µM
- GI50 (KM12 colon): 0.355 µM
- TGI (KM12 colon): 2.17 µM
- GI50 (SK-OV-3 ovarian): 4.2 µM
- TGI (SK-OV-3 ovarian): > 65.2 µM
- GI50 (UACC-257 melanoma): 0.784 µM
- TGI (UACC-257 melanoma): > 33.1 µM
- TGI (CAKI-1 renal): 1.08 µM
- GI50 (SK-MEL-2 melanoma): 11.1 µM
- TGI (SK-MEL-2 melanoma): > 100 µM
- GI50 (M14 melanoma): 0.0814 µM
- TGI (M14 melanoma): 11.2 µM
- GI50 (RPMI-8226 leukemia): 0.0289 µM
- TGI (RPMI-8226 leukemia): 0.349 µM
- GI50 (U251 CNS): 0.0427 µM
- TGI (U251 CNS): 12 µM
- GI50 (NCI-H23 lung): 0.162 µM
- TGI (NCI-H23 lung): 5.09 µM
- GI50 (T-47D breast): 0.923 µM
- TGI (T-47D breast): 31.3 µM
- GI50 (A498 renal): 2.78 µM
- TGI (A498 renal): 9.43 µM
- GI50 (UO-31 renal): 0.0855 µM
- TGI (CCRF-CEM leukemia): > 100 µM
- GI50 (MDA-MB-435): 0.787 µM
- TGI (MDA-MB-435): 23.5 µM
- GI50 (HOP-62 NSCLC): 0.0355 µM
- TGI (HOP-62 NSCLC): 10.6 µM
- GI50 (OVCAR-4 ovarian): 0.768 µM
- TGI (OVCAR-4 ovarian): 18.3 µM
- GI50 (PC-3 prostate): 0.316 µM
- TGI (PC-3 prostate): 13.3 µM
- GI50 (SF-268 CNS): 0.056 µM
- TGI (SF-268 CNS): 18.1 µM
